Results from article PMC10511702, “Design, molecular modelling and synthesis of novel benzothiazole derivatives as BCL-2 inhibitors” (Scientific Reports, 2023).

Key:
recombinant BCL-2 = target: T1, recombinant BCL-2 (Homo sapiens, UniProt P10415); assay: In vitro BCL-2 inhibitory activity, TR-FRET assay (BPS Bioscience); type: binding; details: for inhibition at 10 µM / BCL-2 inhibition %: single dose of 10 µM; for IC50: 5 concentrations 1 nM-10 µM
T1 construct: purchased BPS Bioscience 50272
Procedure: The in vitro enzyme inhibition determination for the synthesized compounds was carried out in BPS Bioscience Corporation, San Diego, CA, USA (www.bpsbioscience.com). […] The assay was performed by TR-FRET technology using a recombinant BCL-2 and a peptide- ligand substrate. The TR-FRET signal from the assay is correlated with the amount of Ligand binding to BCL-2. […] All of the binding reactions were conducted at room temperature. […] The reaction mixture incubated for 180 min prior to reading the TR-FRET signal. For the background, ligand was replaced with assay buffer. Fluorescence signals for both the donor and acceptor dyes were measured using a Tecan Infinite M1000 plate reader. TR-FRET was recorded as the ratio of the fluorescence of the acceptor and the donor dyes (acceptor/donor). Binding experiments were performed in duplicate at each concentration. The TR-FRET data were analyzed using the computer software, Graphpad Prism. In the absence of the compound in wells containing BCL-2 ligand, the TR-FRET signal (Ft) in each data set was defined as 100% activity. In wells without peptide ligand, the TR-FRET signal (Fb) in each data set was defined as 0% activity. The percent activity in the presence of each compound was calculated according to the following equation: % activity = [(F − Fb)/ (Ft − Fb)] × 100, where F = the TR-FRET signal in the presence of the compound. The percent inhibition was calculated according to the following equation: % inhibition = 100—% activity. IC50 determination for target compounds against BCL-2 was calculated. […] The IC50 value was determined by the concentration causing a half-maximal percent activity.

T1 sequence (P10415 whole entry): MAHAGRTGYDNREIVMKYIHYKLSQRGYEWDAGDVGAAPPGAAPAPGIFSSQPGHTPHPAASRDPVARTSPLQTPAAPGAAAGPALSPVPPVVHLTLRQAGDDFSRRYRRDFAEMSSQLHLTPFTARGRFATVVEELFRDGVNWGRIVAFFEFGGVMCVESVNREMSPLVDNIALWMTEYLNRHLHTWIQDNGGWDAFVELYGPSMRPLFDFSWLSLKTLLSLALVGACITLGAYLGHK

| inhibition at 10 µM (recombinant BCL-2) [%] | melting point [°C] | IC50 (recombinant BCL-2) [nM] | inhibition at 0.1 µM (recombinant BCL-2; at 100 nM) [%] | BCL-2 inhibition % (recombinant BCL-2) [%] | Compound |
| --- | --- | --- | --- | --- | --- |
| 14 | 244 to 246 |  |  |  | O=C(Nc1nc2ccc(C(=O)N3CCN(C/C=C/c4ccccc4)CC3)cc2s1)c1ccc(NCCc2ccccc2)c([N+](=O)[O-])c1 [12d, (E)-N-(6-(4-Cinnamylpiperazine-1-carbonyl)benzo[d]thiazol-2-yl)-3-nitro-4-(phenethyl-amino)benzamide] |
| 8 | 134 to 136 |  |  |  | O=C(Nc1nc2ccc(C(=O)N3CCN(C(=O)C4CCCO4)CC3)cc2s1)c1ccc(NCCc2ccccc2)c([N+](=O)[O-])c1 (stereo not drawn) [12e, 3-Nitro-4-(phenethylamino)-N-(6-(4-(tetrahydrofuran-2-carbonyl)piperazine-1-carbonyl)-benzo[d]thiazol-2-yl)benzamide] |
| 35 | 260 to 262 |  |  |  | O=C(Nc1ccc(OCc2cccc(Cl)c2)cc1)c1ccc2nc(NC(=O)c3ccc(NCCc4ccccc4)c([N+](=O)[O-])c3)sc2c1 [13a, N-(4-((3-Chlorobenzyl)oxy)phenyl)-2-(3-nitro-4-(phenethylamino)benzamido) benzo[d]thiazole-6-carboxamide] |
| > 60 | 260 to 262 | 1090 |  |  | O=C(Nc1ccc(OCc2ccc(Br)cc2)cc1)c1ccc2nc(NC(=O)c3ccc(NCCc4ccccc4)c([N+](=O)[O-])c3)sc2c1 [13b, N-(4-((4-Bromobenzyl)oxy)phenyl)-2-(3-nitro-4-(phenethylamino)benzamido)-benzo[d]thiazole-6-carboxamide] |
| 20 | 196 to 198 |  |  |  | O=C(Nc1ccc(Oc2ccc(Cl)c(F)c2)cc1)c1ccc2nc(NC(=O)c3ccc(NCCc4ccccc4)c([N+](=O)[O-])c3)sc2c1 [14a, N-(4-(4-Chloro-3-fluorophenoxy)phenyl)-2-(3-nitro-4-(phenethylamino)benzamido)-benzo[d]thiazole-6-carboxamide] |
| 47 | 212 to 214 |  |  |  | O=C(Nc1ccc(Oc2ccc(Br)cc2)cc1)c1ccc2nc(NC(=O)c3ccc(NCCc4ccccc4)c([N+](=O)[O-])c3)sc2c1 [14b] |
| 0 | ≥ 300 |  |  |  | O=C(Nc1ccccc1)Nc1ccc2nc(NS(=O)(=O)c3ccc4ccccc4c3)sc2c1 [17a, N-(6-(3-Phenylureido)benzo[d]thiazol-2-yl)naphthalene-2-sulfonamide] |
|  |  |  | 92 |  | CC1(C)CCC(CN2CCN(c3ccc(C(=O)NS(=O)(=O)c4ccc(NCC5CCOCC5)c([N+](=O)[O-])c4)c(Oc4cnc5[nH]ccc5c4)c3)CC2)=C(c2ccc(Cl)cc2)C1 [ABT-199 (20), reference compound] |
|  |  |  |  | 0 | N-(6-(4-(3,4-Dichlorophenyl)piperazine-1-carbonyl)benzo[d]thiazol-2-yl)naphthalene-2-sulfonamide [7e] |
|  |  |  |  | 8 | N-(6-(4-(4-Chlorophenyl)piperazine-1-carbonyl)benzo[d]thiazol-2-yl)naphthalene-2-sulfonamide [7d] |

Continued, compound first:

| Compound | inhibition at 10 µM (recombinant BCL-2) [%] | melting point [°C] | IC50 (recombinant BCL-2) [nM] | inhibition at 0.1 µM (recombinant BCL-2; at 100 nM) [%] | BCL-2 inhibition % (recombinant BCL-2) [%] |
| --- | --- | --- | --- | --- | --- |
| O=C(c1ccc2nc(NS(=O)(=O)c3ccc4ccccc4c3)sc2c1)N1CCN(c2ccccc2)CC1 [7a, N-(6-(4-Phenylpiperazine-1-carbonyl)benzo[d]thiazol-2-yl)naphthalene-2-sulfonamide] | 0 |  |  |  |  |
| O=C(c1ccc2nc(NS(=O)(=O)c3ccc4ccccc4c3)sc2c1)N1CCN(c2ccccc2F)CC1 [7b, N-(6-(4-(2-Fluorophenyl)piperazine-1-carbonyl)benzo[d]thiazol-2-yl)naphthalene-2-sulfonamide] | 0 | 290 to 292 |  |  |  |
| COc1ccccc1N1CCN(C(=O)c2ccc3nc(NS(=O)(=O)c4ccc5ccccc5c4)sc3c2)CC1 [7c, N-(6-(4-(2-Methoxyphenyl)piperazine-1-carbonyl)benzo[d]thiazol-2-yl)naphthalene-2-sulfonamide] | 2 | 258 to 260 |  |  |  |
| O=C(c1ccc2nc(NS(=O)(=O)c3ccc4ccccc4c3)sc2c1)N1CCN(C(c2ccccc2)c2ccccc2)CC1 [7f, N-(6-(4-Benzhydrylpiperazine-1-carbonyl)benzo[d]thiazol-2-yl)naphthalene-2-sulfonamide] | 7 | 200 to 202 |  |  |  |
| O=C(c1ccc2nc(NS(=O)(=O)c3ccc4ccccc4c3)sc2c1)N1CCN(C/C=C/c2ccccc2)CC1 [7g, (E)-N-(6-(4-Cinnamylpiperazine-1-carbonyl)benzo[d]thiazol-2-yl)naphthalene-2-sulfonamide] | 7 | 240 to 242 |  |  |  |
| O=C(c1ccc2nc(NS(=O)(=O)c3ccc4ccccc4c3)sc2c1)N1CCN(Cc2ccc3c(c2)OCO3)CC1 [7h, N-(6-(4-(Benzo[d]dioxol-5-ylmethyl)piperazine-1-carbonyl)benzo[d]thiazol-2-yl)naphthalene-2-sulfonamide] | 1 | 178 to 180 |  |  |  |
| O=C(c1ccc2nc(NS(=O)(=O)c3ccc4ccccc4c3)sc2c1)N1CCN(C(=O)C2CCCO2)CC1 (stereo not drawn) [7i, N-(6-(4-(Tetrahydrofuran-2-carbonyl)piperazine-1-carbonyl)benzo[d]thiazol-2-yl)naphthalene-2-sulfonamide] | 4 | 230 to 232 |  |  |  |
| O=C(Nc1ccc(OCc2cccc(F)c2)cc1)c1ccc2nc(NS(=O)(=O)c3ccc4ccccc4c3)sc2c1 [8a, N-(4-((3-Fluorobenzyl)oxy)phenyl)-2-(naphthalene-2-sulfonamido)-benzo[d]thiazole-6-carboxamide] | 41 | 146 to 148 |  |  |  |
| O=C(Nc1ccc(OCc2cccc(Cl)c2)cc1)c1ccc2nc(NS(=O)(=O)c3ccc4ccccc4c3)sc2c1 [8b, N-(4-((3-Chlorobenzyl)oxy)phenyl)-2-(naphthalene-2-sulfonamido)benzo[d]thiazole-6-carboxamide] | 16 | 198 to 200 |  |  |  |
| O=C(Nc1ccc(OCc2ccc(Cl)cc2)cc1)c1ccc2nc(NS(=O)(=O)c3ccc4ccccc4c3)sc2c1 [8c, N-(4-((4-Chlorobenzyl)oxy)phenyl)-2-(naphthalene-2-sulfonamido)benzo[d]thiazole-6-carboxamide] | 48 | 296 to 298 |  |  |  |
| O=C(Nc1ccc(OCc2ccc(Br)cc2)cc1)c1ccc2nc(NS(=O)(=O)c3ccc4ccccc4c3)sc2c1 [8d, N-(4-((4-Bromobenzyl)oxy)phenyl)-2-(naphthalene-2-sulfonamido)benzo[d]thiazole-6-carboxamide] | > 60 | ≥ 300 | 1620 |  |  |
| Cc1ccc(COc2ccc(NC(=O)c3ccc4nc(NS(=O)(=O)c5ccc6ccccc6c5)sc4c3)cc2)cc1 [8e, N-(4-((4-Methylbenzyl)oxy)phenyl)-2-(naphthalene-2-sulfonamido)benzo[d]thiazole-6-carboxamide] | 13 | ≥ 300 |  |  |  |
| O=C(Nc1ccc(OCc2ccc(C(F)(F)F)cc2)cc1)c1ccc2nc(NS(=O)(=O)c3ccc4ccccc4c3)sc2c1 [8f, N-(4-((4-Trifluormethylbenzyl)oxy)phenyl)-2-(naphthalene-2-sulfonamido)benzo-[d]thiazole-6-carboxamide] | 14 | ≥ 300 |  |  |  |
| O=C(Nc1ccc(Oc2ccc(Cl)c(F)c2)cc1)c1ccc2nc(NS(=O)(=O)c3ccc4ccccc4c3)sc2c1 [9a, N-(4-(4-Chloro-3-fluorophenoxy)phenyl)-2-(naphthalene-2-sulfonamido)benzo[d]thiazole-6-carboxamide] | 9 | 294 to 296 |  |  |  |
| O=C(Nc1ccc(Oc2ccc(Br)cc2)cc1)c1ccc2nc(NS(=O)(=O)c3ccc4ccccc4c3)sc2c1 [9b, N-(4-(4-Bromophenoxy)phenyl)-2-(naphthalene-2-sulfonamido)benzo[d]thiazole-6-carboxamide] | 9 | 280 to 282 |  |  |  |
| COc1ccccc1N1CCN(C(=O)c2ccc3nc(NC(=O)c4ccc(NCCc5ccccc5)c([N+](=O)[O-])c4)sc3c2)CC1 [12a, N-(6-(4-(2-Methoxyphenyl)piperazine-1-carbonyl)benzo[d]thiazol-2-yl)-3-nitro-4-(phenethylamino)benzamide] | 15 | 184 to 186 |  |  |  |
| O=C(Nc1nc2ccc(C(=O)N3CCN(c4ccc(Cl)c(Cl)c4)CC3)cc2s1)c1ccc(NCCc2ccccc2)c([N+](=O)[O-])c1 [12b, N-(6-(4-(3,4-Dichlorophenyl)piperazine-1-carbonyl)benzo[d]thiazol-2-yl)-3-nitro-4-(phenethylamino)benzamide] | 18 | 176 to 178 |  |  |  |
| O=C(Nc1nc2ccc(C(=O)N3CCN(C(c4ccccc4)c4ccccc4)CC3)cc2s1)c1ccc(NCCc2ccccc2)c([N+](=O)[O-])c1 [12c, N-(6-(4-Benzhydrylpiperazine-1-carbonyl)benzo[d]thiazol-2-yl)-3-nitro-(phenethylamino)-benzamide] | 18 | 170 to 172 |  |  |  |
